According to ChEMBL document CHEMBL5512660, “Synthesis of LAVR-289, a new [(Z)-3-(acetoxymethyl)-4-(2,4-diaminopyrimidin-6-yl)oxy-but-2-enyl]phosphonic acid prodrug with pronounced antiviral activity against DNA viruses” (Eur J Med Chem, 2024):

Assays:
[1] = Cytotoxicity against human HEL cells assessed as microscopically detectable alterations in cell morphology measured after 24 hrs; assay type: toxicity, cell-based; conditions: read-out: MCC50
Vaccinia virus = test: Antiviral activity against Vaccinia virus […] infected in human HEL cells assessed as reduction in plaque formation measured after 3 days; assay type: functional, organism-based; conditions: Orthopoxvirus vaccinia, 72 h
Human alphaherpesvirus 3 [2] = test: Antiviral activity against thymidine-kinase deficient acyclovir-resistant Varicella zoster virus strain YS/R infected in human HEL cells assessed as reduction in plaque formation measured after 3 days; assay type: functional, organism-based; conditions: Human alphaherpesvirus 3, YS/R, 72 h
[3] = Cytostatic activity against human HEL cells assessed as reduction in cell growth measured after 24 hrs; assay type: toxicity, cell-based
Human alphaherpesvirus 1 [4] = test: Antiviral activity against thymidine-kinase deficient acyclovir-resistant human herpes virus type 1 infected in human HEL cells assessed as reduction in plaque formation measured after 3 days; assay type: functional, organism-based; conditions: Human alphaherpesvirus 1, HEL, 72 h
[5] = Selectivity index, ratio of CC50 for human HEL cells to EC50 for thymidine-kinase deficient acyclovir-resistant Varicella zoster virus; assay type: toxicity; conditions: read-out: Selectivity Index
Human alphaherpesvirus 3 [6] = test: Antiviral activity against thymidine-kinase expressing Varicella zoster virus wild type strain OKA infected in human HEL cells assessed as reduction in plaque formation measured after 3 days; assay type: functional, organism-based; conditions: Human alphaherpesvirus 3, OKA, 72 h
Human alphaherpesvirus 3 [7] = test: Antiviral activity against thymidine-kinase deficient acyclovir-resistant Varicella zoster virus strain 07/1 infected in human HEL cells assessed as reduction in plaque formation measured after 3 days; assay type: functional, organism-based; conditions: Human alphaherpesvirus 3, 07/1, HEL, 72 h
Human alphaherpesvirus 1 [8] = test: Antiviral activity against thymidine-kinase expressing human herpes virus type 1 KOS infected in human HEL cells assessed as reduction in plaque formation measured after 3 days; assay type: functional, organism-based; conditions: Human alphaherpesvirus 1, KOS, 72 h
Human alphaherpesvirus 2 = test: Antiviral activity against human herpes virus type 2 strain 07/1 infected in human HEL cells assessed as reduction in plaque formation measured after 3 days; assay type: functional, organism-based; conditions: Human alphaherpesvirus 2, 07/1, HEL, 72 h
[9] = Selectivity index, ratio of CC50 for human HEL cells to EC50 for thymidine-kinase deficient acyclovir-resistant human herpes virus type 1; assay type: toxicity; conditions: read-out: Selectivity Index
[10] = Selectivity index, ratio of CC50 for human HEL cells to EC50 for Vaccinia virus […]; assay type: toxicity; conditions: read-out: Selectivity Index
Cytomegalovirus [11] = test: Antiviral activity against human cytomegalovirus strain AD-169 infected in human HEL cells assessed as reduction in virus-induced cytopathic effect measured after 3 days; assay type: functional, organism-based; conditions: Human betaherpesvirus 5, AD-169, HEL, 72 h
Cytomegalovirus [12] = test: Antiviral activity against human cytomegalovirus strain Davis infected in human HEL cells assessed as reduction in virus-induced cytopathic effect measured after 3 days; assay type: functional, organism-based; conditions: Human betaherpesvirus 5, Davis, 72 h
Human alphaherpesvirus 3 [13] = test: Antiviral activity against thymidine-kinase expressing Varicella zoster virus wild type strain YS infected in human HEL cells assessed as reduction in plaque formation measured after 3 days; assay type: functional, organism-based; conditions: Human alphaherpesvirus 3, YS, 72 h

Row | SMILES | MCC at 24 h [1] [µM] | EC50 (Vaccinia virus) [nM] | EC50 (Human alphaherpesvirus 3 [2]) [nM] | CC50 at 24 h [3] [nM] | EC50 (Human alphaherpesvirus 1 [4]) [nM] | selectivity ratio [5] | EC50 (Human alphaherpesvirus 3 [6]) [nM] | EC50 (Human alphaherpesvirus 3 [7]) [nM] | EC50 (Human alphaherpesvirus 1 [8]) [nM] | EC50 (Human alphaherpesvirus 2) [nM] | selectivity ratio [9] | selectivity ratio [10] | EC50 (Cytomegalovirus [11]) [nM] | EC50 (Cytomegalovirus [12]) [nM] | EC50 (Human alphaherpesvirus 3 [13]) [nM]
1 | Nc1nc2c(ncn2COCCO)c(=O)[nH]1 [ACYCLOVIR] | > 300 | > 250000 | 66000 | 470000 | – | – | – | – | – | – | – | – | – | – | –
2 | CCCCCCCCCCCCCCCCOCCCOP(=O)(C/C=C(\COC(C)=O)COc1cc(N)nc(N)n1)OCOC(=O)OC(C)C (configuration not stated) | 100 | 50 | – | 2320 | 9 | 129 | 4 | 18 | 430 | 15 | 273 | 46 | 21 | – | –
3 | CC(C)OC(=O)OCOP(=O)(C/C=C/COc1cc(N)nc(N)n1)OCOC(=O)OC(C)C | > 100 | – | – | > 100000 | 5750 | – | 860 | 1250 | 3750 | 1800 | – | – | 44700 | 36600 | –
4 | CC(C)(C)C(=O)OCOP(=O)(C/C=C/COc1cc(N)nc(N)n1)OCOC(=O)C(C)(C)C | > 100 | 32500 | 1700 | 5100 | 13400 | – | 800 | 1400 | 13400 | 13400 | – | – | 44700 | 44700 | 2400
5 | CCCCCCCCCCCCCCCCOCCCOP(=O)(C/C=C/COc1cc(N)nc(N)n1)OCOC(=O)OC(C)C (configuration not stated) | 100 | – | – | 14500 | 42000 | – | 180 | 240 | 39000 | 39000 | – | – | 7080 | 7260 | –
6 | O=c1[nH]c(=O)n([C@H]2C[C@H](O)[C@@H](CO)O2)cc1/C=C/Br [BRIVUDINE] | > 150 | 5800 | 85000 | > 150000 | – | – | 9 | – | – | – | – | – | – | – | –
7 | CC(=O)OC/C(=C\CP(=O)(OCOC(=O)OC(C)C)OCOC(=O)OC(C)C)COc1cc(N)nc(N)n1 | > 100 | 4100 | – | 15400 | 400 | – | 90 | 220 | 600 | 350 | – | – | – | – | –
8 | CC(=O)OCC(=CCP(=O)(OCOC(=O)C(C)(C)C)OCOC(=O)C(C)(C)C)COc1cc(N)nc(N)n1 | 100 | 2900 | 180 | 2030 | 600 | – | 140 | 120 | 600 | 1100 | – | – | 8560 | 4060 | 360
9 | Nc1nc2c(ncn2COC(CO)CO)c(=O)[nH]1 [GANCICLOVIR] | > 350 | > 100000 | – | 130000 | – | – | – | – | – | 60 | – | – | 7500 | – | –
10 | Nc1ccn(C[C@@H](CO)OCP(=O)(O)O)c(=O)n1 [CIDOFOVIR ANHYDROUS] | > 350 | 29000 | – | 64000 | 3800 | – | – | – | – | – | – | 2 | 730 | – | –
